Test results: ChEMBL document CHEMBL4385643, “Design of a brain-penetrant CDK4/6 inhibitor for glioblastoma” (Bioorg Med Chem Lett, 2019)

Key:
[1] = biological target: Ribosomal protein S6 kinase alpha-3 (Homo sapiens) (UniProt P51812); test: Inhibition of recombinant full length human His-tagged RSK2 expressed in baculovirus expression system at 0.1 uM using serine/threonine-6 peptide as substrate incubated for 60 mins by Z'-LYTE assay relative to control
[2] = biological target: Proto-oncogene tyrosine-protein kinase Src (Homo sapiens) (UniProt P12931); test: Inhibition of recombinant full length human His-tagged SRC expressed in baculovirus expression system at 0.1 uM using tyrosine-2 peptide as substrate incubated for 60 mins by Z'-LYTE assay relative to control
[3] = biological target: Serine/threonine-protein kinase 3 (Homo sapiens) (UniProt Q13188); test: Inhibition of recombinant full length human GST-tagged MST2 expressed in baculovirus expression system at 0.1 uM using serine/threonine-7 peptide as substrate incubated for 60 mins by Z'-LYTE assay relative to control
[4] = biological target: G protein-coupled receptor kinase 3 (Homo sapiens) (UniProt P35626); test: Inhibition of recombinant full length human GST-tagged GRK3 expressed in baculovirus expression system at 0.1 uM using serine/threonine-16 peptide as substrate incubated for 60 mins by Z'-LYTE assay relative to control
[5] = biological target: Beta-adrenergic receptor kinase 1 (Homo sapiens) (UniProt P25098); test: Inhibition of recombinant full length human His-tagged GRK2 expressed in baculovirus expression system at 0.1 uM using serine/threonine-16 peptide as substrate incubated for 60 mins by Z'-LYTE assay relative to control
[6] = biological target: Leucine-rich repeat serine/threonine-protein kinase 2 (Homo sapiens) (UniProt Q5S007); test: Inhibition of recombinant human GST-tagged LRRK2 catalytic domain (970 to 2527 amino acids) expressed in baculovirus expression system at 0.1 uM using ERM (LRRKtide) peptide as substrate incubated for 60 mins by Adapta assay relative to control
[7] = biological target: Proto-oncogene tyrosine-protein kinase ROS (Homo sapiens) (UniProt P08922); test: Inhibition of recombinant human GST-tagged ROS1 catalytic domain (1883 to 2347 residues) expressed in baculovirus expression system at 0.1 uM using tyrosine-2 peptide as substrate incubated for 60 mins by Z'-LYTE assay relative to control
Homo sapiens = species: Homo sapiens; test: Inhibition of recombinant human His-tagged PKA catalytic domain (1 to 351 residues) expressed in Escherichia coli expression system at 0.1 uM using serine/threonine-1 peptide as substrate incubated for 60 mins by Z'-LYTE assay relative to control
[8] = biological target: Cyclin-dependent kinase 14/Cyclin-Y (Homo sapiens) (UniProt O94921+Q8ND76); test: Inhibition of tracer 236 binding to recombinant human GST-tagged CDK14/cyclin Y catalytic domain (CDK14: full length, Cyclin Y: 2 to end) expressed by baculovirus in Sf9 insect cells expression system at 0.1 uM measured after 60 mins by Lanthascreen assay relative to control
[9] = biological target: MAP kinase-activated protein kinase 5 (Homo sapiens) (UniProt Q8IW41); test: Inhibition of recombinant full length human His-tagged PRAK expressed in baculovirus expression system at 0.1 uM using serine/threonine-4 peptide as substrate incubated for 60 mins by Z'-LYTE assay relative to control
[10] = biological target: Tyrosine-protein kinase Tec (Homo sapiens) (UniProt P42680); test: Inhibition of tracer 178 binding to recombinant full length human His-tagged TEC expressed in baculovirus expression system at 0.1 uM measured after 60 mins by Lanthascreen assay
[11] = biological target: Serine/threonine-protein kinase NLK (Homo sapiens) (UniProt Q9UBE8); test: Inhibition of tracer 178 binding to recombinant full length human GST-tagged NLK expressed by baculovirus expression system at 0.1 uM measured after 60 mins by Lanthascreen assay relative to control
[12] = biological target: Eukaryotic elongation factor 2 kinase (Homo sapiens) (UniProt O00418); test: Inhibition of recombinant full length human GST-tagged EEF2K expressed in Escherichia coli expression system at 0.1 uM using serine/threonine-24 peptide as substrate incubated for 60 mins by Z'-LYTE assay relative to control
[13] = biological target: Mitogen-activated protein kinase kinase kinase 5 (Homo sapiens) (UniProt Q99683); test: Inhibition of tracer 236 binding to recombinant full length human GST-tagged ASK1 expressed in baculovirus expression system at 0.1 uM measured after 60 mins by Lanthascreen assay relative to control
[14] = biological target: Inhibitor of nuclear factor kappa-B kinase subunit beta (Homo sapiens) (UniProt O14920); test: Inhibition of recombinant full length human GST-tagged IKKbeta expressed in baculovirus expression system at 0.1 uM using serine/threonine-5 peptide as substrate incubated for 60 mins by Z'-LYTE assay relative to control
[15] = biological target: Phosphatidylinositol 4,5-bisphosphate 3-kinase catalytic subunit alpha isoform (Homo sapiens) (UniProt P42336); test: Inhibition of recombinant full length human GST-tagged PI3Kalpha expressed in baculovirus expression system at 0.1 uM using PI Lipid Kinase as substrate incubated for 60 mins by Adapta assay relative to control
[16] = biological target: Tyrosine-protein kinase SYK (Homo sapiens) (UniProt P43405); test: Inhibition of recombinant full length human GST-tagged SYK expressed in baculovirus expression system at 0.1 uM using tyrosine-2 peptide as substrate incubated for 60 mins by Z'-LYTE assay relative to control
[17] = biological target: Protein kinase C zeta type (Homo sapiens) (UniProt Q05513); test: Inhibition of recombinant full length human PKCzeta expressed in baculovirus expression system at 0.1 uM using serine/threonine-7 peptide as substrate incubated for 60 mins by Z'-LYTE assay relative to control
[18] = biological target: Vascular endothelial growth factor receptor 2 (Homo sapiens) (UniProt P35968); test: Inhibition of recombinant human His-tagged KDR (789 to 1356 residues) expressed in baculovirus expression system at 0.1 uM using tyrosine-1 peptide as substrate incubated for 60 mins by Z'-LYTE assay relative to control
[19] = biological target: Serine/threonine-protein kinase PAK 1 (Homo sapiens) (UniProt Q13153); test: Inhibition of recombinant full length human GST-tagged PAK1 expressed in baculovirus expression system at 0.1 uM using serine/threonine-19 peptide as substrate incubated for 60 mins by Z'-LYTE assay relative to control
[20] = biological target: Aurora kinase A (Homo sapiens) (UniProt O14965); test: Inhibition of recombinant full length human His-tagged Aurora A expressed in baculovirus expression system at 0.1 uM using serine/threonine-1 peptide as substrate incubated for 60 mins by Z'-LYTE assay relative to control
[21] = biological target: Serine/threonine-protein kinase Sgk1 (Homo sapiens) (UniProt O00141); test: Inhibition of recombinant human GST-tagged SGK1 catalytic domain (60 to 431 residues) expressed in baculovirus expression system at 0.1 uM using serine/threonine-6 peptide as substrate incubated for 60 mins by Z'-LYTE assay relative to control
[22] = biological target: TGF-beta receptor type-1 (Homo sapiens) (UniProt P36897); test: Inhibition of tracer 178 binding to recombinant human GST-tagged TGFBR1 catalytic domain (200 to 503 residues) expressed in baculovirus expression system at 0.1 uM measured after 60 mins by Lanthascreen assay

Chain of Beta-adrenergic receptor kinase 1 (Homo sapiens) (P25098 whole entry, the tested form may be a part): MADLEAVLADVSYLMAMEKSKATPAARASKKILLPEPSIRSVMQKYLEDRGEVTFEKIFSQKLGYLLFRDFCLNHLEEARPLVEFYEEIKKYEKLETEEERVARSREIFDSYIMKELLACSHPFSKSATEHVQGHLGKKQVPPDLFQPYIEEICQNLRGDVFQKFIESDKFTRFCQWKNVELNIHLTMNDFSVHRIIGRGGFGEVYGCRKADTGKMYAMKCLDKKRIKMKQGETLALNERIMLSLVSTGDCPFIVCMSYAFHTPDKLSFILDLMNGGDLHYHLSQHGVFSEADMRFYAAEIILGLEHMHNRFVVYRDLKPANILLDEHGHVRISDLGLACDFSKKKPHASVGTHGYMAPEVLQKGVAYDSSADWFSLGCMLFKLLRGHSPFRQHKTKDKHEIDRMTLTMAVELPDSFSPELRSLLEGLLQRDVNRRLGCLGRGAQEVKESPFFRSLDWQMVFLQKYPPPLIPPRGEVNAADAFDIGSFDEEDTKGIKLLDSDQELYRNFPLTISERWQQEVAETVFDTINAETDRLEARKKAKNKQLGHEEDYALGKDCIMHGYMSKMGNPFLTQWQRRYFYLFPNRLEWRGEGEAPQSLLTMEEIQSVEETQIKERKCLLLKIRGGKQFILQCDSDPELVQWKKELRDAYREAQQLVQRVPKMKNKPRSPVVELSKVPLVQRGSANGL
Chain of Leucine-rich repeat serine/threonine-protein kinase 2 (Homo sapiens) (Q5S007 whole entry, the tested form may be a part): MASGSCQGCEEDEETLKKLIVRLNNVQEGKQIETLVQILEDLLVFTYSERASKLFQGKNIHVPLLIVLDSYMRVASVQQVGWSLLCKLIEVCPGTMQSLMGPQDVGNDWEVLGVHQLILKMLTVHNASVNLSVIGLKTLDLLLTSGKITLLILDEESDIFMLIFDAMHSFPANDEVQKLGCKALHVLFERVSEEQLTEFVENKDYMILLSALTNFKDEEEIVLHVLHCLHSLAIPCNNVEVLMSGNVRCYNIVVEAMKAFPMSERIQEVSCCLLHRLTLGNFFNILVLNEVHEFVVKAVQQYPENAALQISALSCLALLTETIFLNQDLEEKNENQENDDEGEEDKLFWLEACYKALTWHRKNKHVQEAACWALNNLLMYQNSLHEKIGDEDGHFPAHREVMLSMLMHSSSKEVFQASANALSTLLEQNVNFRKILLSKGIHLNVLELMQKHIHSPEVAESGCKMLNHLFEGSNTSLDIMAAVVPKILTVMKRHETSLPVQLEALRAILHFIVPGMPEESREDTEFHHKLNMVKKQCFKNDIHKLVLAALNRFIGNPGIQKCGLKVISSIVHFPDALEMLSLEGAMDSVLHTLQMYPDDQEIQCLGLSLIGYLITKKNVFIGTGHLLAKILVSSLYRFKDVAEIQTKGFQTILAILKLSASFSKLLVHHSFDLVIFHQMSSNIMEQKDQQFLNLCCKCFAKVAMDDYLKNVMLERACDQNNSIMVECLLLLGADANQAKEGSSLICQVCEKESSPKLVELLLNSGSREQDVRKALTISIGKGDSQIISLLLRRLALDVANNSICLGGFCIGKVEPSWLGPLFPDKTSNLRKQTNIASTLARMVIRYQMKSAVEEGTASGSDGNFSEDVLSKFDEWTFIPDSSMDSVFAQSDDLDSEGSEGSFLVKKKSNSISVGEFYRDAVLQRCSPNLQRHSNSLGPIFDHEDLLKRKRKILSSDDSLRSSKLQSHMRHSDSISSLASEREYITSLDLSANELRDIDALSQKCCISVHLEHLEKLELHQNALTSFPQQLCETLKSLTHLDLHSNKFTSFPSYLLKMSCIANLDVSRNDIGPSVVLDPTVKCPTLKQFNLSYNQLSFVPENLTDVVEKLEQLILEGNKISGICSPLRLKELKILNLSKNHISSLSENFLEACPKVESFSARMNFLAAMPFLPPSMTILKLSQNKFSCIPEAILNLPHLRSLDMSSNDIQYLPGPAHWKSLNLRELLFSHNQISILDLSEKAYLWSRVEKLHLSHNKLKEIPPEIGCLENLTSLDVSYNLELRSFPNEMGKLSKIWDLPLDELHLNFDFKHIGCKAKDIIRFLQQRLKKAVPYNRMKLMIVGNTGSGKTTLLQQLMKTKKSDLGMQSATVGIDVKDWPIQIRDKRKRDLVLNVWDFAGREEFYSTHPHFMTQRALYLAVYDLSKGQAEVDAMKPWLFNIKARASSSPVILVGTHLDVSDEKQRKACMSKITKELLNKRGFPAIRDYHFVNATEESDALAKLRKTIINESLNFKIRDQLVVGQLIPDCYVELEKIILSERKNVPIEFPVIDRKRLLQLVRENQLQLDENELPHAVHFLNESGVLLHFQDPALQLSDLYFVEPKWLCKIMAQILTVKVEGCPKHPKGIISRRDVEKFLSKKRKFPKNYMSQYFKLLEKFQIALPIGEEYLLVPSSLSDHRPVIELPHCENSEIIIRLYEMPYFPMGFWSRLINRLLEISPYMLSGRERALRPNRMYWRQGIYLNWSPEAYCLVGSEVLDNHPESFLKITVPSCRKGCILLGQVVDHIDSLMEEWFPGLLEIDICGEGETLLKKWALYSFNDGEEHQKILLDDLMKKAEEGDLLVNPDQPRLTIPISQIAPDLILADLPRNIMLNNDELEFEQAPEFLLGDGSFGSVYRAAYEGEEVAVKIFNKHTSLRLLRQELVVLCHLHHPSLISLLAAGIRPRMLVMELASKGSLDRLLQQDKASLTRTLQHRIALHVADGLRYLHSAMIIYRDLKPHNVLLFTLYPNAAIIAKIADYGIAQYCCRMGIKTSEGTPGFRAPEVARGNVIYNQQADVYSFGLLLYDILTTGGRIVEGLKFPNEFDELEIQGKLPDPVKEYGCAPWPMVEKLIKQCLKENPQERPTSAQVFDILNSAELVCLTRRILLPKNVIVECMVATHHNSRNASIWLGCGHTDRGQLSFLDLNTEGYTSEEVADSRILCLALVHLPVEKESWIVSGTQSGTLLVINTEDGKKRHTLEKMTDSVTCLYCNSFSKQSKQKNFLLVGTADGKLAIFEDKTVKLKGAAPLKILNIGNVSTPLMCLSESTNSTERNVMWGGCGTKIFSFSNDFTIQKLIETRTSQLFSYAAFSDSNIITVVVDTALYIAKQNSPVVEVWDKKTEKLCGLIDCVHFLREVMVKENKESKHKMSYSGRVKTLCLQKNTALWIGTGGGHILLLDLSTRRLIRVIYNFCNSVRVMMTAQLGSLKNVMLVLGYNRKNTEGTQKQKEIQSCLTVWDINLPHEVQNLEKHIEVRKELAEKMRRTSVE
Chain of Serine/threonine-protein kinase 3 (Homo sapiens) (Q13188 whole entry): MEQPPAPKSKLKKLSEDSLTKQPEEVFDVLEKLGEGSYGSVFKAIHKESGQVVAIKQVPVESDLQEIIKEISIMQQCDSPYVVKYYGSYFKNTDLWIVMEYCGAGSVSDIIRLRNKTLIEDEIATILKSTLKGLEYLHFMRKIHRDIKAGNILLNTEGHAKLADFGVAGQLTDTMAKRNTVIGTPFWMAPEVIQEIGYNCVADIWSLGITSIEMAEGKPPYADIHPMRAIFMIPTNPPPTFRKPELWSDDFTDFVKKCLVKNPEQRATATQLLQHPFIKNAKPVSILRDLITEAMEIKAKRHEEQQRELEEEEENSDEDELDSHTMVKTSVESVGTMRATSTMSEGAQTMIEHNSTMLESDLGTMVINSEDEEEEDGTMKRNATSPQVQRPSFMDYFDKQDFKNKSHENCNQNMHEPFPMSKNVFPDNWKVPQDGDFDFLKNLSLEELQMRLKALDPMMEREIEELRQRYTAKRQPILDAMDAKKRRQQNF
Chain of Inhibitor of nuclear factor kappa-B kinase subunit beta (Homo sapiens) (O14920 whole entry, canonical isoform): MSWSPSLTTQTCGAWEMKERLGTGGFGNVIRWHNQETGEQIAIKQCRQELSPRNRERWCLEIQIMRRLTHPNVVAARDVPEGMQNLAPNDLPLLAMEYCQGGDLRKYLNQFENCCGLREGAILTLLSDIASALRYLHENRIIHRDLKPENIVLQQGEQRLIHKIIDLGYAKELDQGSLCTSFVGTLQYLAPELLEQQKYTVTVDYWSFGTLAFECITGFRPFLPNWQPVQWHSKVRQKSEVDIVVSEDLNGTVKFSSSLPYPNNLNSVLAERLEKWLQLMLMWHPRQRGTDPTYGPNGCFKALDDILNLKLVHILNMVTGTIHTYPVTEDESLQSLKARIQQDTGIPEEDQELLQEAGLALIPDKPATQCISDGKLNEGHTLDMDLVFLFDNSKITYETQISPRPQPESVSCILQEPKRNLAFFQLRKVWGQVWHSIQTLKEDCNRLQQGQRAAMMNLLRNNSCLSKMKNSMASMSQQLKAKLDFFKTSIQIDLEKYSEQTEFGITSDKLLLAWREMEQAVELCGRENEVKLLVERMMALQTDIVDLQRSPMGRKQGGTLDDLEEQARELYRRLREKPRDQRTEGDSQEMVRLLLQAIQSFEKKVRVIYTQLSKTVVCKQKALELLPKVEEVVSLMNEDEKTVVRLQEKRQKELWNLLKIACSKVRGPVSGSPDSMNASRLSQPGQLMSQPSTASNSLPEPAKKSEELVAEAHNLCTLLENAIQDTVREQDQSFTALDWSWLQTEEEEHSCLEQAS
Chain of Proto-oncogene tyrosine-protein kinase Src (Homo sapiens) (P12931 2-536 limits assumed): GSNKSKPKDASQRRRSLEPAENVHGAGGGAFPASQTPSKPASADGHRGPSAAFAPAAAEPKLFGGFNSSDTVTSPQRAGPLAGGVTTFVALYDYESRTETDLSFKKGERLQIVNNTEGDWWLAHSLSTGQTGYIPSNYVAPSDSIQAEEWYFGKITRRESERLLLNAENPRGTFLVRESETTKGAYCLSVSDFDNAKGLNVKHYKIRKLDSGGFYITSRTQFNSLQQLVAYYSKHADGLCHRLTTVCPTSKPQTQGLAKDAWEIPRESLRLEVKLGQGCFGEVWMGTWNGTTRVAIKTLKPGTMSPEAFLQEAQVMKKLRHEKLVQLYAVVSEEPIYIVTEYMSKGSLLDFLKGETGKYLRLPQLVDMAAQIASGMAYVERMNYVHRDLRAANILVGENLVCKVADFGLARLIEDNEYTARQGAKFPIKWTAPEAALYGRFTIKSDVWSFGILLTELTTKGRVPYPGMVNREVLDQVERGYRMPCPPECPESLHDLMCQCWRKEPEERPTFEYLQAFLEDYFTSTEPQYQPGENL

Work on `CCN1CCN(Cc2ccc(Nc3ncc(F)c(-c4cc(F)c5nc(C)n(C(C)C)c5c4)n3)nc2)CC1` [ABEMACICLIB] yielded an inhibition [1] of 10.5%, an inhibition [2] of 7.5% and an inhibition [3] of 13%. The inhibition [4] was 0.5%, the inhibition [5] was 0% and the inhibition [6] was 74.6%. For the same compound, the inhibition [7] was 59.5%, the inhibition (Homo sapiens) was 5% and the inhibition [8] was 56%. It also gave an inhibition [9] of 5%, an inhibition [10] of 0.8% and an inhibition [11] of 2.2%. The inhibition [12] was 8%, the inhibition [13] was 4.3% and the inhibition [14] was 12.5%. It also gave an inhibition [15] of 4%, an inhibition [16] of 6% and an inhibition [17] of 12%. It also gave an inhibition [18] of 4.5%, an inhibition [19] of 3.5% and an inhibition [20] of 9.5%. The inhibition [21] was 64% and the inhibition [22] was 10.9%.
Work on `CCN1CC2(C1)CN(c1ccc(Nc3ncc(F)c(-c4cnn5c4[C@H](C)CCCC5)n3)nc1)C2` yielded an inhibition [1] of 53%, an inhibition [2] of 1.5% and an inhibition [3] of 4%. It also gave an inhibition [4] of 0%, an inhibition [5] of 0.5% and an inhibition [6] of 97.5%. The inhibition [7] was 57.5%, the inhibition (Homo sapiens) was 4% and the inhibition [8] was 41.5%. For the same compound, the inhibition [9] was 13.5%, the inhibition [10] was 5% and the inhibition [11] was 22.5%. It also gave an inhibition [12] of 5.5%, an inhibition [13] of 7% and an inhibition [14] of 5%. It also gave an inhibition [15] of 1.5%, an inhibition [16] of -3% and an inhibition [17] of -3%. The inhibition [18] was 17.5%, the inhibition [19] was 15.5% and the inhibition [20] was 12%. It also gave an inhibition [21] of 72.5% and an inhibition [22] of 16%.
